We go through 31 compounds from patent US7618964B2, “Benzamide derivatives, their manufacture and use as pharmaceutical agents” (Hoffmann-La Roche Inc., priority 2004, dated 2009).

Usually IC50 stands for the concentration that gives 50% inhibition. Read a high IC50 as a need for much substance.

In assay [1] the target is T1, Src (p60^c-src, partially purified) (Homo sapiens, UniProt P12931).
T1 construct: purchased UBI, Upstate Biotech, Inc
Put plainly: SRC-Inhibitor-Assay (time-resolved fluorescence kinase assay), Src. It is filed as biochemical. The settings on record: ATP 5 μM, peptide 10 μM, enzyme 2.5 U/ml, pre-incubated 15 min at 15° C. An excerpt:
(§1) The activity of the compounds according to this invention as inhibitors for the src-family tyrosine kinases was shown by using the following assay.
(§2) SRC-Inhibitor-Assay Parameters:
(§3) Time-resolved Fluorescence Assay: Reader: Perkin Elmer, Wallac Viktor 1420-040 multilabel counter; Liquid handling system: Beckman Coulter, Biomek 2000.
(§4) ATP, Tween™ 20, 4-(2-hydroxyethyl)-1-piperazineethanesulfonic acid (HEPES) were purchased from Roche Molecular Biochemicals, MgCl2 and MnCl2 were purchased from Merck Eurolab, Tris(2-carboxyethyl)phosphine hydrochloride (TCEP) was purchased from Pierce, 384 Well low volume fluorescence plates was purchased from Falcon.
(§5) At first the enzyme is pre-incubated for 15 min. at 15° C. in aqueous solution with corresponding amounts of inhibitors according to this invention. Then the phosphorylation reaction is started by adding a reaction mixture, containing ATP, Peptide and PT66, and subsequent shaking. The proceeding of this reaction is immediately monitored using time resolved fluorescence spectroscopy in a suitable well plate reader.
(§6) The IC50-values can be obtained from the reaction rates by using a non-linear curve fit (XLfit software (ID Business Solution Ltd., Guilford, Surrey, UK))

Assay [2] deals with T2, Lck (p56^lck, active) (Homo sapiens, UniProt P06239).
T2 construct: purchased UBI, Upstate Biotech, Inc
T2 sequence (P06239 whole entry, species assumed): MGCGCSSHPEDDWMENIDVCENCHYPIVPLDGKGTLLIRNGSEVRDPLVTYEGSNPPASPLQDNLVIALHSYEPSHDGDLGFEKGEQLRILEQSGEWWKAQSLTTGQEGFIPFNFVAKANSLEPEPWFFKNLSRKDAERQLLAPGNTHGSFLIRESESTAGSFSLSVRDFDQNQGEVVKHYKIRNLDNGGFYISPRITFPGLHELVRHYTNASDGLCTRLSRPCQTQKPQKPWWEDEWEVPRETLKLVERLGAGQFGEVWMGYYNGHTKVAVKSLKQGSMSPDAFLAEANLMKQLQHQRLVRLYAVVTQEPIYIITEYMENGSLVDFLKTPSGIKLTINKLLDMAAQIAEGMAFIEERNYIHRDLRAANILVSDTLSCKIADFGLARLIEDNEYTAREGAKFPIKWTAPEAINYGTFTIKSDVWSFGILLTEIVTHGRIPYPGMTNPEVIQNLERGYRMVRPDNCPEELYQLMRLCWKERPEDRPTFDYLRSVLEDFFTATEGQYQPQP
Kind of assay: SRC-Inhibitor-Assay (time-resolved fluorescence kinase assay), Lck. It is filed as biochemical. Particulars: ATP 5 μM, peptide 10 μM, enzyme 2.5 U/ml, pre-incubated 15 min at 15° C.
Source text: as §1, §2, §3, §4, §5, §6

T1 sequence (P12931 whole entry, species assumed): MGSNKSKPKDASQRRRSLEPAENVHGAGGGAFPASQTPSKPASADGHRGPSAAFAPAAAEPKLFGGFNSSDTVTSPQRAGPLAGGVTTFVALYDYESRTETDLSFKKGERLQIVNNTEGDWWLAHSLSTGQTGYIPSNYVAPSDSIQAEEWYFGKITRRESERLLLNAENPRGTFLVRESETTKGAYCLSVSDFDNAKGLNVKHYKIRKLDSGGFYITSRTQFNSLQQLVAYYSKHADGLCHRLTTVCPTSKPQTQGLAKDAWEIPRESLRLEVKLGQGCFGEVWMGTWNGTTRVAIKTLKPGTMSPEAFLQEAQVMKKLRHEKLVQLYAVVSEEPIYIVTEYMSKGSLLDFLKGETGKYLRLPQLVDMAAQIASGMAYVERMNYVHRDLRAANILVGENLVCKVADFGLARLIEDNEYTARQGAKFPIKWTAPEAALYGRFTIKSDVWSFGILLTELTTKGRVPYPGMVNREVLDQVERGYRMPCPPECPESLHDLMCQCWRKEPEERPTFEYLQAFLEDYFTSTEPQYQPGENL

With `O=C(Nc1cnc2[nH]c(-c3ccccc3)nc2c1)c1ccccc1Cl` [Example 1-1, 2-Chloro-N-(2-phenyl-3H-imidazo[4,5-b]pyridin-6-yl)-benzamide], the concentration for half-maximal inhibition (IC50) amounted to 21 nM in assay [1] and 481 nM in assay [2].
The corresponding values for `Cc1cccc(Cl)c1C(=O)Nc1cnc2[nH]c(-c3ccccc3)nc2c1` [Example 1-2, 2-Chloro-6-methyl-N-(2-phenyl-3H-imidazo[4,5-b]pyridin-6-yl)-benzamide] are 5 to 300 nM and 40 to 9000 nM.
Taken in the same sequence, the figures for `O=C(Nc1cnc2[nH]c(-c3ccccc3)nc2c1)c1ccccc1Br` [Example 1-3, 2-Bromo-N-(2-phenyl-3H-imidazo[4,5-b]pyridin-6-yl)-benzamide] were 5 to 300 nM and 40 to 9000 nM.
Take `Cc1ccc([N+](=O)[O-])cc1C(=O)Nc1cnc2[nH]c(-c3ccccc3)nc2c1` [Example 1-4, 2-Methyl-5-nitro-N-(2-phenyl-3H-imidazo[4,5-b]pyridin-6-yl)-benzamide]: the IC50 in assay [1] lay in the range of 300 to 3500 nM; in assay [2], 1000 to 9000 nM.
For the compound `O=C(Nc1cnc2[nH]c(-c3ccccc3)nc2c1)c1cc([N+](=O)[O-])ccc1Cl` [Example 1-5, 2-Chloro-5-nitro-N-(2-phenyl-3H-imidazo[4,5-b]pyridin-6-yl)-benzamide], the half-maximal inhibitory concentration (IC50) in assay [1] was in the range of 300 to 3500 nM; in assay [2] it was 1000 to 9000 nM.
The corresponding values for `O=C(Nc1cnc2[nH]c(-c3ccccc3)nc2c1)c1ccccc1` [Example 1-6, N-(2-Phenyl-3H-imidazo[4,5-b]pyridin-6-yl)-benzamide] are 5 to 300 nM and 40 to 9000 nM.
The corresponding values for `COCCC(=O)Nc1cccc(-c2nc3cc(NC(=O)c4ccccc4Cl)cnc3[nH]2)c1` [Example 1-7, 2-Chloro-N-{2-[3-(3-methoxy-propionylamino)-phenyl]-3H-imidazo[4,5-b]pyridin-6-yl}-benzamide] are 5 to 300 nM and 40 to 9000 nM.
Taken in the same sequence, the figures for `Cc1ccc(N)cc1C(=O)Nc1cnc2[nH]c(-c3ccccc3)nc2c1` [Example 2-1, 5-Amino-2-methyl-N-(2-phenyl-3H-imidazo[4,5-b]pyridin-6-yl)-benzamide] were 135 nM and 160 nM.
For the compound `Nc1ccc(Cl)c(C(=O)Nc2cnc3[nH]c(-c4ccccc4)nc3c2)c1` [Example 3-1, 5-Amino-2-chloro-N-(2-phenyl-3H-imidazo[4,5-b]pyridin-6-yl)-benzamide], the results for the 50% inhibitory concentration (IC50) in assay [1] and in assay [2] were 5 to 300 nM and 40 to 9000 nM, respectively.
The corresponding values for `CCN(CC)CCOc1ccc(-c2nc3cc(NC(=O)c4ccccc4Cl)cnc3[nH]2)cc1` [Example 4-1, 2-Chloro-N-{2-[4-(2-diethylamino-ethoxy)-phenyl]-3H-imidazo[4,5-b]pyridin-6-yl}-benzamide] are 5 to 300 nM and 40 to 9000 nM.
The corresponding values for `COCCOc1ccc(-c2nc3cc(NC(=O)c4ccccc4Cl)cnc3[nH]2)cc1` [Example 4-2, 2-Chloro-N-{2-[4-(2-methoxy-ethoxy)-phenyl]-3H-imidazo[4,5-b]pyridin-6-yl}-benzamide] are 5 to 300 nM and 40 to 9000 nM.
Taken in the same sequence, the figures for `O=C(Nc1cnc2[nH]c(-c3ccc(N4CCOCC4)cc3)nc2c1)c1ccccc1Cl` [Example 4-5, 2-Chloro-N-[2-(4-morpholin-4-yl-phenyl)-3H-imidazo[4,5-b]pyridin-6-yl]-benzamide] were 7 nM and 49 nM.
Turning to `O=C(Nc1cnc2[nH]c(-c3cccs3)nc2c1)c1ccccc1Cl` [Example 4-6, 2-Chloro-N-(2-thiophen-2-yl-3H-imidazo[4,5-b]pyridin-6-yl)-benzamide], the IC50 in assay [1] fell in the range of 5 to 300 nM; in assay [2] it was 40 to 9000 nM.
Consider `O=C(Nc1cnc2[nH]c(-c3ccsc3)nc2c1)c1ccccc1Cl` [Example 4-7, 2-Chloro-N-(2-thiophen-3-yl-3H-imidazo[4,5-b]pyridin-6-yl)-benzamide], for which the half-maximal inhibitory concentration (IC50) lay in the range of 5 to 300 nM in assay [1] and 40 to 9000 nM in assay [2].
The corresponding values for `CN1CCN(c2ccc(-c3nc4cc(NC(=O)c5ccccc5Cl)cnc4[nH]3)cc2)CC1` [Example 4-8, 2-Chloro-N-{2-[4-(4-methyl-piperazin-1-yl)-phenyl]-3H-imidazo[4,5-b]pyridin-6-yl}-benzamide] are 5 to 300 nM and 40 to 9000 nM.
Taken in the same sequence, the figures for `COCC(COC)NC(=O)c1cccc(-c2nc3cc(NC(=O)c4ccccc4Cl)cnc3[nH]2)c1` [Example 6-3, 2-Chloro-N-(2-{3-[2-methoxy-1-methoxymethyl-ethylcarbamoyl]-phenyl}-3H-imidazo[4,5-b]pyridin-6-yl)-benzamide] were 5 to 300 nM and 40 to 9000 nM.
The corresponding values for `Cc1ccc(-c2nc3cc(NC(=O)c4ccccc4Cl)cnc3[nH]2)cn1` [Example 7-2, 2-Chloro-N-[2-(6-methyl-pyridin-3-yl)-3H-imidazo[4,5-b]pyridine-6-yl]-benzamide] are 5 to 300 nM and 40 to 9000 nM.
As for `CSc1cccc(-c2nc3cc(NC(=O)c4ccccc4Cl)cnc3[nH]2)c1` [Example 7-3, 2-Chloro-N-[2-(3-methylsulfanyl-phenyl)-3H-imidazo[4,5-b]pyridine-6-yl]-benzamide], the values for the IC50 in assay [1] and in assay [2] were 5 to 300 nM and 40 to 9000 nM, respectively.
Taken in the same sequence, the figures for `O=C(Nc1cnc2[nH]c(-c3ccc4[nH]cnc4c3)nc2c1)c1ccccc1Cl` [Example 7-5, N-[2-(1H-Benzoimidazol-5-yl)-3H-imidazo[4,5-b]pyridine-6-yl]-2-chloro-benzamide] were 5 to 300 nM and 40 to 9000 nM.
The corresponding values for `O=C(Nc1cnc2[nH]c(-c3ccc(N4CCOCC4)nc3)nc2c1)c1ccccc1Cl` [Example 7-7, 2-Chloro-N-[2-(6-morpholin-4-yl-pyridin-3-yl)-3H-imidazo[4,5-b]pyridine-6-yl]-benzamide] are 5 to 300 nM and 40 to 9000 nM.
The corresponding values for `C[S+]([O-])c1cccc(-c2nc3cc(NC(=O)c4ccccc4Cl)cnc3[nH]2)c1` (centres unmarked) [Example 9-1, 2-Chloro-N-[2-(3-methanesulfinyl-phenyl)-3H-imidazo[4,5-b]pyridine-6-yl]-benzamide] are 5 to 300 nM and 40 to 9000 nM.
Take `Nc1cccc(-c2nc3cc(NC(=O)c4ccccc4Cl)cnc3[nH]2)c1` [Example 10-1, N-[2-(3-Amino-phenyl)-3H-imidazo[4,5-b]pyridine-6-yl]-2-chloro-benzamide]: the IC50 is 5 to 300 nM in assay [1] and 40 to 9000 nM in assay [2].
The corresponding values for `CC(=O)Nc1cccc(-c2nc3cc(NC(=O)c4ccccc4Cl)cnc3[nH]2)c1` [Example 11-1, N-[2-(3-Acetylamino-phenyl)-3H-imidazo[4,5-b]pyridine-6-yl]-2-chloro-benzamide] are 5 to 300 nM and 40 to 9000 nM.
Taken in the same sequence, the figures for `O=C(Nc1cnc2[nH]c(-c3ccccc3)cc2c1)c1ccccc1Cl` [Example 12-1, 2-Chloro-N-(2-phenyl-1H-pyrrolo[2,3-b]pyridine-5-yl)-benzamide] were 5 to 300 nM and 40 to 9000 nM.
Taken in the same sequence, the figures for `O=C(Nc1cnc2[nH]c(-c3ccccc3)cc2c1)c1ccc(Cl)cc1Cl` [Example 12-4, 2,4-Dichloro-N-(2-phenyl-1H-pyrrolo[2,3-b]pyridine-5-yl)-benzamide] were 5 to 300 nM and 40 to 9000 nM.
As to `Cc1cccc(Cl)c1C(=O)Nc1cnc2[nH]c(-c3ccccc3)cc2c1` [Example 12-5, 2-Chloro-6-methyl-N-(2-phenyl-1H-pyrrolo[2,3-b]pyridine-5-yl)-benzamide], the half-inhibitory concentration (IC50) is 5 to 300 nM in assay [1] and 40 to 9000 nM in assay [2].
Taken in the same sequence, the figures for `Cc1ccccc1C(=O)Nc1cnc2[nH]c(-c3ccccc3)cc2c1` [Example 12-7, 2-Methyl-N-(2-phenyl-1H-pyrrolo[2,3-b]pyridine-5-yl)-benzamide] were 5 to 300 nM and 40 to 9000 nM.
Taken in the same sequence, the figures for `COc1cc(OC)cc(C(=O)Nc2cnc3[nH]c(-c4ccccc4)cc3c2)c1` [Example 12-12, 3,5-Dimethoxy-N-(2-phenyl-1H-pyrrolo[2,3-b]pyridine-5-yl)-benzamide] were 5 to 300 nM and 40 to 9000 nM.
The corresponding values for `COCCOc1ccc(-c2cc3cc(NC(=O)c4ccccc4OC)cnc3[nH]2)cc1` [Example 12-14, 2-Methoxy-N-{2-[4-(2-methoxy-ethoxy)-phenyl]-1H-pyrrolo[2,3-b]pyridin-5-yl}-benzamide] are 5 to 300 nM and 40 to 9000 nM.
Take `COCCN(CCOC)c1ccc(-c2nc3cc(NC(=O)c4ccccc4Cl)cnc3[nH]2)cc1F` [Example 13-1, N-(2-{4-[Bis-(2-methoxy-ethyl)-amino]-3-fluoro-phenyl}-3H-imidazo[4,5-b]pyridin-6-yl)-2-chloro-benzamide]: the values for the IC50 in assay [1] and in assay [2] were 5 to 300 nM and 40 to 9000 nM, respectively.
Take `COCCCNc1cc(-c2nc3cc(NC(=O)c4ccccc4Cl)cnc3[nH]2)ccn1` [Example 14-1, 2-Chloro-N-{2-[2-(3-methoxy-propylamino)-pyridin-4-yl]-3H-imidazo[4,5-b]pyridin-6-yl}-benzamide]: the IC50 was in the range of 5 to 300 nM in assay [1] and 40 to 9000 nM in assay [2].
